Measured values from ChEMBL document CHEMBL4507327 (2021).
Values belong to the molecule of their own block, whether it stands above or below them.

Legend:
[1] = molecular target: Casein kinase I isoform gamma-1 (Homo sapiens, UniProt Q9HCP0); assay: CK1gamma1(C1G1LGI1) Takeda global kinase panel
[2] = molecular target: Serine/threonine-protein kinase 24 (Homo sapiens, UniProt Q9Y6E0); assay: MST3(ST24LGC1) Takeda global kinase panel
[3] = molecular target: Ribosomal protein S6 kinase alpha-4 (Homo sapiens, UniProt O75676); assay: MSK2(R6A4LGRJ) Takeda global kinase panel
[4] = molecular target: Casein kinase I isoform delta (Homo sapiens, UniProt P48730); assay: CK1delta(CS1DLGI1) Takeda global kinase panel
[5] = molecular target: Serine/threonine-protein kinase SIK3 (Homo sapiens, UniProt Q9Y2K2); assay: QSK(SIK3LGP1) Takeda global kinase panel
Ephrin type-B receptor 4 = Ephrin type-B receptor 4 (Homo sapiens, UniProt P54760); assay: EphB4(EPB4LGY1) Takeda global kinase panel
[6] = molecular target: Protein kinase C theta type (Homo sapiens, UniProt Q04759); assay: PKCtheta(PRKQLGM5) Takeda global kinase panel
[7] = molecular target: Proto-oncogene tyrosine-protein kinase ROS (Homo sapiens, UniProt P08922); assay: Ros(ROS1PHY1) Takeda global kinase panel
[8] = molecular target: Gamma-aminobutyric acid type B receptor subunit 1 (Homo sapiens) (UniProt Q9UBS5); assay: Inhibition of GABAB1A at compound concentration of 10.0 uM in the Eurofins-Panlabs radioligand binding assay (Eurofins_assay_228610); design: ligand concentration 4 nM; conditions: Compound concentration 10.0 uM
[9] = molecular target: Serine/threonine-protein kinase pim-1 (Homo sapiens, UniProt P11309); assay: Pim1(PIM1LGP1) Takeda global kinase panel
[10] = molecular target: G protein-coupled receptor kinase 3 (Homo sapiens, UniProt P35626); assay: BARK2 [GRK3(ADR2LGG5)] Takeda global kinase panel
[11] = molecular target: Serine/threonine-protein kinase DCLK3 (Homo sapiens, UniProt Q9C098); assay: DCAMKL3(DCL3LGP1) Takeda global kinase panel
Chain of Serine/threonine-protein kinase DCLK3 (Q9C098 whole entry): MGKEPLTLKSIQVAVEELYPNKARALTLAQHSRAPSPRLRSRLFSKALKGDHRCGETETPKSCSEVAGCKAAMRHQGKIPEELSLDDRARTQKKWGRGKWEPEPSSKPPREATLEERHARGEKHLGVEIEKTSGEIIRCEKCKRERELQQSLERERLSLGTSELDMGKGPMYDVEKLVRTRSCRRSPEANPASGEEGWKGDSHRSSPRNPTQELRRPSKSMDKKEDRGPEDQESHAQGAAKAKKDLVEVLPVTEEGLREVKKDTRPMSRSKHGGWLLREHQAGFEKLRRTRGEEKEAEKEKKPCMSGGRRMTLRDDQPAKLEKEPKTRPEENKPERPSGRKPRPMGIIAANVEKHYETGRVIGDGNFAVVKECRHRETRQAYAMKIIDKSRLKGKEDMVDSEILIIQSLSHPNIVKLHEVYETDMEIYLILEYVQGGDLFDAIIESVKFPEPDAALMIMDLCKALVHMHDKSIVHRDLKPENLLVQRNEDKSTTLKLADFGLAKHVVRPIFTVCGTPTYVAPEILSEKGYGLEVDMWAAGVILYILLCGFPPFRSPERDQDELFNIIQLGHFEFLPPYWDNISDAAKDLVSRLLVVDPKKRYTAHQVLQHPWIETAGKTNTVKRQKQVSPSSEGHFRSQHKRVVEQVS

TGF-beta receptor type-1 = TGF-beta receptor type-1 (Homo sapiens, UniProt P36897); assay: TGFbetaR1(TGF1LGF1) Takeda global kinase panel
[12] = molecular target: Adenosine receptor A3 (Homo sapiens) (UniProt P0DMS8); conditions: Compound concentration 10.0 uM
[13] = molecular target: Mitogen-activated protein kinase 9 (Homo sapiens, UniProt P45984); assay: JNK2(MAP9LGF1) Takeda global kinase panel
[14] = molecular target: T1, Epidermal growth factor receptor (Homo sapiens, UniProt P00533); assay: Inhibition of Epidermal Growth Factor (EGF) at 10 µM in the Eurofins-Panlabs radioligand binding assay (Eurofins_assay_225510); conditions: Compound concentration 10.0 uM
T1 sequence (P00533 whole entry): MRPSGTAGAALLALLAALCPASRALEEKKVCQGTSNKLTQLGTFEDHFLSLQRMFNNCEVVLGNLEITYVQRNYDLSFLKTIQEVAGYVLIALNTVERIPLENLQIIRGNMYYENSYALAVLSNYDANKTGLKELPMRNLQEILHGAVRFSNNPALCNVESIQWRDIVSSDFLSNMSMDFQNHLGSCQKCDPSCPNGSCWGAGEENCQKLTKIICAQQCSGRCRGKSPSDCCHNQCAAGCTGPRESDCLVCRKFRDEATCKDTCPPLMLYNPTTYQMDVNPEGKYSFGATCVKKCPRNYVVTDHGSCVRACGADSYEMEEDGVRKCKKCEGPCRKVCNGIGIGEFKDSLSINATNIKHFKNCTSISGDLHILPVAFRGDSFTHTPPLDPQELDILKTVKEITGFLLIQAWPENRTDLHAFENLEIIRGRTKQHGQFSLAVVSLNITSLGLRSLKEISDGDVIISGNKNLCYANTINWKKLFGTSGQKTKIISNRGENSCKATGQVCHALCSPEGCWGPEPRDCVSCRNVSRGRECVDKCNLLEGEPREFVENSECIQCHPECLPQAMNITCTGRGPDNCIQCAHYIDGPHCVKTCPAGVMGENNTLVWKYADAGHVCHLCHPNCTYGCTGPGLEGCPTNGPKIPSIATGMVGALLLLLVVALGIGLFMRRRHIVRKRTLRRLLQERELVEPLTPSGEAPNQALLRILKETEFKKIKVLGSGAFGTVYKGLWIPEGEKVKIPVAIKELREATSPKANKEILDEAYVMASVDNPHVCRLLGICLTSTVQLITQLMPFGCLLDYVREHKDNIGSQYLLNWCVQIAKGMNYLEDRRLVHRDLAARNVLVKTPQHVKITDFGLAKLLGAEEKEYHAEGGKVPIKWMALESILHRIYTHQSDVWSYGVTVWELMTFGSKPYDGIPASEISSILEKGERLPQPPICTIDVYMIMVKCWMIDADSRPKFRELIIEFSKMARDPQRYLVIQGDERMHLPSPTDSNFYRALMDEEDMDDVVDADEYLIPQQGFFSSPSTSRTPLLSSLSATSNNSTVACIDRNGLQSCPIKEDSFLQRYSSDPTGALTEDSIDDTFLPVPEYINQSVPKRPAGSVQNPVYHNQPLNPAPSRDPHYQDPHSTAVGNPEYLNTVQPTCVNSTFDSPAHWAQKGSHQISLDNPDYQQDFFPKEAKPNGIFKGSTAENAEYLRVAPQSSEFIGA

[15] = molecular target: Serine/threonine-protein kinase OSR1 (Homo sapiens, UniProt O95747); assay: OSR1(OXS1LGY1) Takeda global kinase panel
Chain of Serine/threonine-protein kinase OSR1 (O95747 whole entry): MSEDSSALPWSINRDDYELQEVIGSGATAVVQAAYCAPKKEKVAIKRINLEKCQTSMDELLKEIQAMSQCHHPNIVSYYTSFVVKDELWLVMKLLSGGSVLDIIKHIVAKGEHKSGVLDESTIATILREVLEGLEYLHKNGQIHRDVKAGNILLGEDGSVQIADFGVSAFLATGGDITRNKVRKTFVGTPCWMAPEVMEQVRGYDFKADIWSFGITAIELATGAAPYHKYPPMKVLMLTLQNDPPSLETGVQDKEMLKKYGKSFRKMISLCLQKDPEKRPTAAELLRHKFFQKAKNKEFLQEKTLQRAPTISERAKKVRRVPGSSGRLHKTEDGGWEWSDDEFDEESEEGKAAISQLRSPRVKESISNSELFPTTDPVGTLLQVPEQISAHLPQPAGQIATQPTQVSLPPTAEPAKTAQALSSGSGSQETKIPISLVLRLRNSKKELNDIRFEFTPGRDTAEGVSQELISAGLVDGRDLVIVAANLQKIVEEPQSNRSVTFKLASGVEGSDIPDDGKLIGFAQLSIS

[16] = molecular target: Serine/threonine-protein kinase 33 (Homo sapiens, UniProt Q9BYT3); assay: STK33(ST33LGF1) Takeda global kinase panel
Chain of Serine/threonine-protein kinase 33 (Q9BYT3 whole entry): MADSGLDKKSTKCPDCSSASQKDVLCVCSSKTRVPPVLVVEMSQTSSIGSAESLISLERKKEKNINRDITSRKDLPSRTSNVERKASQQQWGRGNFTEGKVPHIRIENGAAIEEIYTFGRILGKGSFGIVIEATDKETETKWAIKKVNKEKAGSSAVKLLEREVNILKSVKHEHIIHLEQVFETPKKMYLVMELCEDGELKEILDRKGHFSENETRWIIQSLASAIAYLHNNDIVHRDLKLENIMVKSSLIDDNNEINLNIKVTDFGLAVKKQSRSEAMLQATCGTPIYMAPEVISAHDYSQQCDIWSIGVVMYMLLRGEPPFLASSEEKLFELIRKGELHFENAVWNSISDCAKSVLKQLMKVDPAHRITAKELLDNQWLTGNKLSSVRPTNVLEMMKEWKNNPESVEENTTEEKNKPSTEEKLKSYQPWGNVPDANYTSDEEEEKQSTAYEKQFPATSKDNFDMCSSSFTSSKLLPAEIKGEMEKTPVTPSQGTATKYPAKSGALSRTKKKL

[17] = molecular target: Serine/threonine-protein kinase pim-2 (Homo sapiens, UniProt Q9P1W9); assay: Pim2(PIM2LHY1) Takeda global kinase panel
[18] = molecular target: ALK tyrosine kinase receptor (Homo sapiens, UniProt Q9UM73); assay: ALK(ALK1LGY1) Takeda global kinase panel
[19] = molecular target: Sodium-dependent noradrenaline transporter (Homo sapiens) (UniProt P23975); conditions: Compound concentration 10.0 uM
[20] = molecular target: Serine/threonine-protein kinase D3 (Homo sapiens, UniProt O94806); assay: PKD3(PRD3LGG5) Takeda global kinase panel
[21] = molecular target: Mitogen-activated protein kinase 11 (Homo sapiens, UniProt Q15759); assay: p38beta(MP11LGI1) Takeda global kinase panel
[22] = molecular target: Mitogen-activated protein kinase kinase kinase 11 (Homo sapiens, UniProt Q16584); assay: MLK3(M311LGF1) Takeda global kinase panel
[23] = molecular target: Serine/threonine-protein kinase greatwall (Homo sapiens, UniProt Q96GX5); assay: MASTL(MASLLGE1) Takeda global kinase panel
LIM domain kinase 1 = LIM domain kinase 1 (Homo sapiens, UniProt P53667); assay: LIMK1(LIM1LGY1) Takeda global kinase panel
Chain of LIM domain kinase 1 (P53667 whole entry, the tested form may be a part): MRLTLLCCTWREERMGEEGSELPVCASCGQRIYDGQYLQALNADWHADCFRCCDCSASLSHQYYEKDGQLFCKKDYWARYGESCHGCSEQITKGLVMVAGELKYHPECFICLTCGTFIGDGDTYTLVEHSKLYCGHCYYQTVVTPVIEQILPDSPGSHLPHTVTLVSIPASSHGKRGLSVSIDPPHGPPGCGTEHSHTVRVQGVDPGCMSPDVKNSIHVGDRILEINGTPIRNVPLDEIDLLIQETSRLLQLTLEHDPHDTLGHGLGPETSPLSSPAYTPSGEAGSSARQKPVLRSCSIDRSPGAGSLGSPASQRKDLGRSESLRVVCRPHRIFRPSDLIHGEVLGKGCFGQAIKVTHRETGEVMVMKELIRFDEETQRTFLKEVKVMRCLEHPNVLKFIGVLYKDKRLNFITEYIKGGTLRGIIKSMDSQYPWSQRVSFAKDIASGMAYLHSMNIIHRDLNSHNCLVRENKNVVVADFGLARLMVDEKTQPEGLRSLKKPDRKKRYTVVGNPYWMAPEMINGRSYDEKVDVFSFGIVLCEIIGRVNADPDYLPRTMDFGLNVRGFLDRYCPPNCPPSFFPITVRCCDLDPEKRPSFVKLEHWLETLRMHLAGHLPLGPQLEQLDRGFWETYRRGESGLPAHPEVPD

[24] = molecular target: Cyclin-dependent kinase 17 (Homo sapiens, UniProt Q00537); assay: PCTAIRE2(CD17SGS1) Takeda global kinase panel
[25] = molecular target: Homeodomain-interacting protein kinase 4 (Homo sapiens, UniProt Q8NE63); assay: HIPK4(HIP4LHY1) Takeda global kinase panel
Chain of Homeodomain-interacting protein kinase 4 (Q8NE63 whole entry): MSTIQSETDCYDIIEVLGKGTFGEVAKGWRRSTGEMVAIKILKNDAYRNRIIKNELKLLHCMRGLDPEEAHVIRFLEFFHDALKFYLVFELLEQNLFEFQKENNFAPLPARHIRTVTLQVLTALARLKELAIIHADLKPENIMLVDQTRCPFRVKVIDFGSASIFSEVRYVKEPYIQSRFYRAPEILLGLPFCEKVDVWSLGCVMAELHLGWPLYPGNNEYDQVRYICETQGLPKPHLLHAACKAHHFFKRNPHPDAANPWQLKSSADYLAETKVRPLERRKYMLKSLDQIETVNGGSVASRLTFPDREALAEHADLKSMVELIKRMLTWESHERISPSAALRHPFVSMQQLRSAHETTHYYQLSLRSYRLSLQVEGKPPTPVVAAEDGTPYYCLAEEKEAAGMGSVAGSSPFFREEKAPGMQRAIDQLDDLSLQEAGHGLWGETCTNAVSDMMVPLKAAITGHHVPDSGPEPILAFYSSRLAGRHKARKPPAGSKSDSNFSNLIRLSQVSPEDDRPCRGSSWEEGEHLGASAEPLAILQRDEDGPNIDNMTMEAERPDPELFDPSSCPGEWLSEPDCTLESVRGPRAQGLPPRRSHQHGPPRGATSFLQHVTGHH

[26] = molecular target: Tyrosine-protein kinase Lck (Homo sapiens, UniProt P06239); assay: Lck(LCK1LGF1) Takeda global kinase panel
[27] = molecular target: L-type calcium channel, dihydropyridine site (Cav1.2 alpha-1C) (Homo sapiens, UniProt Q13936); assay: Inhibition of Calcium Channel L-Type, Dihydropyridine at 10 µM in the Eurofins-Panlabs radioligand binding assay (Eurofins_assay_214600); design: ligand concentration 0.1 nM, non-specific ligand with concentration 1 µM Nitrendipine, incubation time 90 min, incubation temperature 25 °C; conditions: Wistar, rat, cerebral cortices of rats, probe [3H] Nitrendipine; compound concentration 10 uM; target entry is the homologue from another species
[28] = molecular target: Citron Rho-interacting kinase (Homo sapiens, UniProt O14578); assay: CRIK(CIT1LGY1) Takeda global kinase panel
[29] = molecular target: Bromodomain testis-specific protein (Homo sapiens, UniProt Q58F21); assay: BRDT(BRDTLGRC) Takeda global kinase panel
[30] = molecular target: Serine/threonine-protein kinase PAK 5 (Homo sapiens, UniProt Q9P286); assay: PAK5(PAK7LGF1) Takeda global kinase panel
[31] = molecular target: Serine/threonine-protein kinase 3 (Homo sapiens, UniProt Q13188); assay: MST2(STK3LGF1) Takeda global kinase panel
[32] = molecular target: Serine/threonine-protein kinase Nek5 (Homo sapiens, UniProt Q6P3R8); assay: Nek5(NEK5LGRD) Takeda global kinase panel
[33] = molecular target: T1, Epidermal growth factor receptor; assay: EGFR(EGFRMGB1) Takeda global kinase panel
[34] = molecular target: Cyclin-dependent kinase 13 (Homo sapiens, UniProt Q14004); assay: CHED(CD13PHS1) Takeda global kinase panel
[35] = molecular target: Serine/threonine-protein kinase B-raf (Homo sapiens, UniProt P15056); assay: BRAF(BRAFLGY1) Takeda global kinase panel
[36] = molecular target: Homeodomain-interacting protein kinase 1 (Homo sapiens, UniProt Q86Z02); assay: HIPK1(HIP1LGF1) Takeda global kinase panel
[37] = molecular target: D(2) dopamine receptor (Homo sapiens) (UniProt P14416); conditions: Compound concentration 10.0 uM
[38] = molecular target: Casein kinase I isoform alpha-like (Homo sapiens, UniProt Q8N752); assay: CK1alpha2(C1ALLGI5) Takeda global kinase panel
[39] = molecular target: Receptor-interacting serine/threonine-protein kinase 2 (Homo sapiens, UniProt O43353); assay: RIPK2(RIP2LGI1) Takeda global kinase panel
[40] = molecular target: Glutamate NMDA receptor (Rattus norvegicus) (UniProt P35439+Q00959+Q00960+Q00961+Q62645+Q8VHN2+Q9R1M7); conditions: Compound concentration 10.0 uM
[41] = molecular target: Casein kinase II subunit alpha' (Homo sapiens, UniProt P19784); assay: CK2alpha2(C2A2LGK1) Takeda global kinase panel
Chain of Casein kinase II subunit alpha' (P19784 whole entry): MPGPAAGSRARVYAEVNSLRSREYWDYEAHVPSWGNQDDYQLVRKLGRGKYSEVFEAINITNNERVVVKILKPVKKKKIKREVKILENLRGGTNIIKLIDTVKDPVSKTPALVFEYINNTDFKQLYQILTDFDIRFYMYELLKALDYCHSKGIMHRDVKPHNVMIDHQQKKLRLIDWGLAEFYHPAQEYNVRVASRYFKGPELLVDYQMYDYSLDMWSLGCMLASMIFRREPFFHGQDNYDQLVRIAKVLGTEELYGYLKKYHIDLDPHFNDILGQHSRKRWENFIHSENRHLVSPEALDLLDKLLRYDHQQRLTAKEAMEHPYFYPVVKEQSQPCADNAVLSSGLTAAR

Chain of Casein kinase I isoform gamma-1 (Q9HCP0 whole entry, canonical isoform): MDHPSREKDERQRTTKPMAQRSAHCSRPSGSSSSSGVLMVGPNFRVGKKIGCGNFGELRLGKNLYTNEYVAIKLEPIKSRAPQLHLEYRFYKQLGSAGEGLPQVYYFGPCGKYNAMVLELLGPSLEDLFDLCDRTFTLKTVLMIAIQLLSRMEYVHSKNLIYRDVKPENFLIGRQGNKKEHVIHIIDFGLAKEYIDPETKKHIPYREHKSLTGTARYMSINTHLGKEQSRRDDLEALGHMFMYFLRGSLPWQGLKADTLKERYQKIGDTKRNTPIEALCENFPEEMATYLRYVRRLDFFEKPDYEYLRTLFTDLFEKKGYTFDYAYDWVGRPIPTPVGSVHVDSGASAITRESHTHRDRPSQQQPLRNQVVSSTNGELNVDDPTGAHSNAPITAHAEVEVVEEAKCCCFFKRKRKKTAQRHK

Compound: CN1C(=O)[C@@H](N2CCc3cn(Cc4ccccc4)nc3C2=O)COc2ccccc21 [TP-030-1]
IC50 [1]: 1000 nM | IC50 [2]: 1000 nM | IC50 [3]: 1000 nM | IC50 [4]: 1000 nM | IC50 [5]: 1000 nM | IC50 (Ephrin type-B receptor 4): 1000 nM | IC50 [6]: 1000 nM | IC50 [7]: 1000 nM | inhibition [8]: 0% | IC50 [9]: 1000 nM | IC50 [10]: 1000 nM | IC50 [11]: 1000 nM | IC50 (TGF-beta receptor type-1): 1000 nM | inhibition [12]: 15% | IC50 [13]: 1000 nM | inhibition [14]: -3% | IC50 [15]: 1000 nM | IC50 [16]: 1000 nM | IC50 [17]: 1000 nM | IC50 [18]: 1000 nM | inhibition [19]: 15% | IC50 [20]: 1000 nM | IC50 [21]: 1000 nM | IC50 [22]: 1000 nM | IC50 [23]: 1000 nM | IC50 (LIM domain kinase 1): 1000 nM | IC50 [24]: 1000 nM | IC50 [25]: 1000 nM | IC50 [26]: 1000 nM | inhibition at 90 min, 10 µM [27]: -18% (not active) | IC50 [28]: 1000 nM | IC50 [29]: 1000 nM | IC50 [30]: 1000 nM | IC50 [31]: 1000 nM | IC50 [32]: 1000 nM | IC50 [33]: 1000 nM | IC50 [34]: 1000 nM | IC50 [35]: 1000 nM | IC50 [36]: 1000 nM | inhibition [37]: 7% | IC50 [38]: 1000 nM | IC50 [39]: 1000 nM | inhibition [40]: 0% | IC50 [41]: 1000 nM

IC50 [1]: 1000 nM | IC50 [2]: 1000 nM | IC50 [3]: 1000 nM | IC50 [4]: 1000 nM | IC50 [5]: 1000 nM | IC50 (Ephrin type-B receptor 4): 1000 nM | IC50 [6]: 1000 nM | IC50 [7]: 1000 nM | inhibition [8]: -6% | IC50 [9]: 1000 nM | IC50 [10]: 1000 nM | IC50 [11]: 1000 nM | IC50 (TGF-beta receptor type-1): 1000 nM | inhibition [12]: 0% | IC50 [13]: 1000 nM | inhibition [14]: 4% | IC50 [15]: 1000 nM | IC50 [16]: 1000 nM | IC50 [17]: 1000 nM | IC50 [18]: 1000 nM | inhibition [19]: 3% | IC50 [20]: 1000 nM | IC50 [21]: 1000 nM | IC50 [22]: 1000 nM | IC50 [23]: 1000 nM | IC50 (LIM domain kinase 1): 1000 nM | IC50 [24]: 1000 nM | IC50 [25]: 1000 nM | IC50 [26]: 1000 nM | IC50 [28]: 1000 nM | IC50 [29]: 1000 nM | IC50 [30]: 1000 nM | IC50 [31]: 1000 nM | IC50 [32]: 1000 nM | IC50 [33]: 1000 nM | IC50 [34]: 1000 nM | IC50 [35]: 1000 nM | IC50 [36]: 1000 nM | inhibition [37]: 2% | IC50 [38]: 1000 nM | IC50 [39]: 1000 nM | inhibition [40]: -2% | IC50 [41]: 1000 nM
Compound: CN1C(=O)[C@@H](N2CCc3cn(CC4CCS(=O)(=O)CC4)nc3C2=O)COc2ccccc21 [TP-030n]
inhibition at 90 min, 10 µM [27]: -6% (not active)
